The values that follow are results of earlier work, collected in US20080057142A1, “COMPOSITIONS AND METHODS FOR WEIGHT-LOSS AND WEIGHT-LOSS MAINTENANCE IN DAYTIME AND NIGHTTIME FORMULATION” (priority 2005, published 2008).

For this data set the following is noted: EGCG, but not related catechins.

In the case of epigallocatechin-3-gallate [EGCG], the body weight entry is listed as “reduced body weight” and the food intake entry is given as “significantly reduced food intake”.
